Reference: patent USRE40086E1, “Method for treating bacterial infection with novel 7-substituted-9-substituted amino 6-demethyl-6-deoxytetracyclines” (Wyeth Holdings Corporation, priority 1991, dated 2008)

Columns and labels:
Format in all cases: cell-based
[1] = system: S. aureus UBMS 88-5 (tetM); assay: MIC, agar dilution; settings: S. aureus UBMS 88-5 TetM; Table IA; unit assumed
[2] = system: S. aureus UBMS 88-4 (Sensitive); assay: MIC, agar dilution; settings: S. aureus UBMS 88-4; Table IA; unit assumed
[3] = system: S. aureus UBMS 90-1 (tetM); assay: MIC, agar dilution; settings: S. aureus UBMS 90-1 TetM; Table IA; unit assumed
[4] = system: S. aureus UBMS 90-2 (tetM); assay: MIC, agar dilution; settings: S. aureus UBMS 90-2 TetM; Table IA; unit assumed
[5] = system: S. aureus UBMS 90-3 (Sensitive); assay: MIC, agar dilution; settings: S. aureus UBMS 90-3; Table IA; unit assumed
[6] = system: S. aureus UBMS 88-7 (tetK); assay: MIC, agar dilution; settings: S. aureus UBMS 88-7 TetK; Table IA; unit assumed
[7] = system: S. aureus IVES 2943 (meth. resistant); assay: MIC, agar dilution; settings: S. aureus IVES 2943; Table IA; unit assumed
[8] = system: S. aureus IVES 1983 (meth. resistant); assay: MIC, agar dilution; settings: S. aureus IVES 1983; Table IA; unit assumed
[9] = system: S. aureus ATCC 29213 (Sensitive); assay: MIC, agar dilution; settings: S. aureus ATCC 29213; Table IA; unit assumed
[10] = system: S. aureus Smith (Sensitive); assay: MIC, agar dilution; settings: S. aureus SMITH (MP); Table IA; unit assumed
[11] = system: S. haemolyticus AVAH 88-3; assay: MIC, agar dilution; settings: S. hemolyticus AVHAH 88-3; Table IA; unit assumed
E. faecalis 12201 = assay: MIC, agar dilution; settings: Enterococcus 12201; Table IA; unit assumed
E. faecalis ATCC 29212 = assay: MIC, agar dilution; settings: E. faecalis ATCC 29212; Table IA; unit assumed
E. coli UBMS 88-1 (tetB) = assay: MIC, agar dilution; settings: E. coli UBMS 88-1 TetB; Table IA; unit assumed
E. coli UBMS 89-1 (tetM) = assay: MIC, agar dilution; settings: E. coli UBMS 89-1 TetM; Table IA; unit assumed
[12] = system: E. coli UBMS 89-2 (Sensitive); assay: MIC, agar dilution; settings: E. coli UBMS 89-2 Tet Sens.; Table IA; unit assumed
E. coli ATCC 25922 = assay: MIC, agar dilution; settings: E. coli ATCC 25922; Table IA; unit assumed
E. coli UBMS 90-4 (tetM) = assay: MIC, agar dilution; settings: E. coli UBMS 90-4 TetM; Table IA; unit assumed
E. coli J3272 Tet sens. = assay: MIC, agar dilution (Table IA); settings: unit assumed
E. coli MC4100 TetB = assay: MIC, agar dilution (Table IA); settings: unit assumed
E. coli PRP1 TetA = assay: MIC, agar dilution (Table IA); settings: unit assumed
E. coli J3272 TetC = assay: MIC, agar dilution (Table IA); settings: unit assumed
E. coli J2175 = assay: MIC, agar dilution (Table IA); settings: unit assumed
E. coli BAJ9003 = assay: MIC, agar dilution (Table IA); settings: unit assumed
E. coli UBMS 90-5 = assay: MIC, agar dilution (Table IA); settings: unit assumed
E. coli #311 (MP) = assay: MIC, agar dilution (Table IA); settings: unit assumed
E. coli J3272 TetD = assay: MIC, agar dilution (Table IA); settings: unit assumed
S. mariescens FDOR 8733 = assay: MIC, agar dilution (Table IA); settings: unit assumed
[13] = system: X. maltophilia NEMC 87210; assay: MIC, agar dilution (Table IA); settings: unit assumed
[14] = system: Ps. acruginosa ATCC 27853; assay: MIC, agar dilution (Table IA); settings: unit assumed
S. aureus NEMC 8769/89-4 = assay: MIC, agar dilution (Table IA); settings: unit assumed
S. aureus ROSE (MP) = assay: MIC, agar dilution (Table IA); settings: unit assumed

Structure (SMILES)	Antibacterial activity (MIC) [1] [µg/mL]	Antibacterial activity (MIC) [2] [µg/mL]	Antibacterial activity (MIC) [3] [µg/mL]	Antibacterial activity (MIC) [4] [µg/mL]	Antibacterial activity (MIC) [5] [µg/mL]	Antibacterial activity (MIC) [6] [µg/mL]	Antibacterial activity (MIC) [7] [µg/mL]	Antibacterial activity (MIC) [8] [µg/mL]	Antibacterial activity (MIC) [9] [µg/mL]	Antibacterial activity (MIC) [10] [µg/mL]	Antibacterial activity (MIC) [11] [µg/mL]	Antibacterial activity (MIC) (E. faecalis 12201) [µg/mL]	Antibacterial activity (MIC) (E. faecalis ATCC 29212) [µg/mL]	Antibacterial activity (MIC) (E. coli UBMS 88-1 (tetB)) [µg/mL]	Antibacterial activity (MIC) (E. coli UBMS 89-1 (tetM)) [µg/mL]	Antibacterial activity (MIC) [12] [µg/mL]	Antibacterial activity (MIC) (E. coli ATCC 25922) [µg/mL]	Antibacterial activity (MIC) (E. coli UBMS 90-4 (tetM)) [µg/mL]	Antibacterial activity (MIC) (E. coli J3272 Tet sens.) [µg/mL]	Antibacterial activity (MIC) (E. coli MC4100 TetB) [µg/mL]	also measured
CN(C)c1cc(NC(=O)CN2CCC2)c(O)c2c1CC1CC3C(N(C)C)C(O)=C(C(N)=O)C(=O)C3(O)C(O)=C1C2=O (stereo not drawn) [LLL, (7S-(7alpha,10aalpha)]-N-[9-(Aminocarbonyl)-4,7-bis(dimethylamino)-5,5a,6,6a,7,10,10a,12-octahydro-1,8,10a,11-tetrahydroxy-10,12-dioxo-2-naphthacenyl]-1-azetidineacetamide]	0.25	0.25	0.25	0.25	0.12	2	2	2	0.25	0.25	0.25	0.25	0.25	0.5	0.25	0.5	0.25	0.25	0.25	0.5	Antibacterial activity (MIC) (E. coli PRP1 TetA): 1 µg/mL; Antibacterial activity (MIC) (E. coli J3272 TetC): 0.5 µg/mL; Antibacterial activity (MIC) (E. coli J2175): 0.25 µg/mL; Antibacterial activity (MIC) (E. coli BAJ9003): 0.06 µg/mL; Antibacterial activity (MIC) (E. coli UBMS 90-5): 0.25 µg/mL; Antibacterial activity (MIC) (E. coli #311 (MP)): 0.25 µg/mL; Antibacterial activity (MIC) (E. coli J3272 TetD): 0.12 µg/mL; Antibacterial activity (MIC) (S. mariescens FDOR 8733): 2 µg/mL; Antibacterial activity (MIC) [13]: 1 µg/mL; Antibacterial activity (MIC) [14]: 8 µg/mL; Antibacterial activity (MIC) (S. aureus NEMC 8769/89-4): 0.12 µg/mL; Antibacterial activity (MIC) (S. aureus ROSE (MP)): 2 µg/mL
CN(C)c1cc(NC(=O)CNC2CCC2)c(O)c2c1CC1CC3C(N(C)C)C(O)=C(C(N)=O)C(=O)C3(O)C(O)=C1C2=O (stereo not drawn) [MMM, [4S-(4alpha,12aalpha)]-g-[[(Cyclobutylamino)acetyl]amino]-4,7-Bis(dimethylamino)-1,4,4a,5,5a,6,11,12a-octahydro-3,10,12,12a-tetrahydroxy-1,11-dioxo-2-naphthacenecarboxamide]	0.25	0.25	0.5	0.25	0.12	4	4	4	0.25	0.25	0.24	0.24	0.25	0.5	0.25	0.5	0.25	0.25	0.06	0.25	Antibacterial activity (MIC) (E. coli PRP1 TetA): 4 µg/mL; Antibacterial activity (MIC) (E. coli J3272 TetC): 0.5 µg/mL; Antibacterial activity (MIC) (E. coli J2175): 0.25 µg/mL; Antibacterial activity (MIC) (E. coli BAJ9003): 0.03 µg/mL; Antibacterial activity (MIC) (E. coli UBMS 90-5): 0.5 µg/mL; Antibacterial activity (MIC) (E. coli #311 (MP)): 0.25 µg/mL; Antibacterial activity (MIC) (E. coli J3272 TetD): 0.12 µg/mL; Antibacterial activity (MIC) (S. mariescens FDOR 8733): 8 µg/mL; Antibacterial activity (MIC) [13]: 0.5 µg/mL; Antibacterial activity (MIC) [14]: 32 µg/mL; Antibacterial activity (MIC) (S. aureus NEMC 8769/89-4): 0.5 µg/mL; Antibacterial activity (MIC) (S. aureus ROSE (MP)): 8 µg/mL
CN(C)c1cc(NC(=O)CN2CCCCC2)c(O)c2c1CC1CC3C(N(C)C)C(O)=C(C(N)=O)C(=O)C3(O)C(O)=C1C2=O.Cl.Cl (stereo not drawn) [UU, [7S-(7alpha,10aalpha)]-N-[9-(Aminocarbonyl)-4,7-bis(dimethylamino)-5,5a,6,6a,7,10,10a,12-octahydro-1,8,10a,11-tetrahydroxy-10,12-dioxo-2-naphthacenyl)-1-piperidineacetamide dihydrochloride]	0.25	0.25	0.25	0.12	0.12	0.25	0.25	0.5	0.12	0.12	0.12	0.12	0.06	0.5	0.12	0.5	0.25	0.5	0.5	0.5	Antibacterial activity (MIC) (E. coli PRP1 TetA): 1 µg/mL; Antibacterial activity (MIC) (E. coli J3272 TetC): 0.5 µg/mL; Antibacterial activity (MIC) (E. coli J2175): 0.5 µg/mL; Antibacterial activity (MIC) (E. coli BAJ9003): 0.06 µg/mL; Antibacterial activity (MIC) (E. coli UBMS 90-5): 0.5 µg/mL; Antibacterial activity (MIC) (E. coli #311 (MP)): 0.25 µg/mL; Antibacterial activity (MIC) (E. coli J3272 TetD): 0.25 µg/mL; Antibacterial activity (MIC) (S. mariescens FDOR 8733): 4 µg/mL; Antibacterial activity (MIC) [13]: 0.12 µg/mL; Antibacterial activity (MIC) [14]: 32 µg/mL; Antibacterial activity (MIC) (S. aureus NEMC 8769/89-4): 0.06 µg/mL; Antibacterial activity (MIC) (S. aureus ROSE (MP)): 0.5 µg/mL
